Consider 4 compounds from PMC7127101 (Bioorganic & Medicinal Chemistry Letters, 2010).

Structures are written as SMILES.

The test concerns the target SARS-CoV 3CL^pro (Severe acute respiratory syndrome coronavirus, UniProt P0C6X7). Format: biochemical.

In the case of `CC1=C(O)C(=O)C=C2C1=CC=C1[C@@]2(C)CC[C@@]2(C)[C@@H]3C[C@](C)(C(=O)O)CC[C@]3(C)CC[C@]12C` [Compound 1, celastrol], the Inhibition type entry is listed as “Competitive (4.2 ± 0.6)”. Regarding `COC(=O)[C@]1(C)CC[C@]2(C)CC[C@]3(C)C4=CC=C5C(=CC(=O)C(O)=C5C)[C@]4(C)CC[C@@]3(C)[C@@H]2C1` [Compound 2, pristimerin], the Inhibition type result is reported as “Competitive (3.1 ± 0.0)”. `CC1=C(O)C(=O)C=C2C1=CC=C1[C@@]2(C)CC[C@@]2(C)[C@@H]3C[C@@H](C)C(=O)C[C@]3(C)CC[C@]12C` [Compound 3, tingenone]: the Inhibition type entry is “Competitive (4.0 ± 0.1)”.

For `CC1=CC[C@]2(C)CC[C@]3(C)C4=CC=C5C(=CC(=O)C(O)=C5C)[C@]4(C)CC[C@@]3(C)[C@@H]2C1` [Compound 4, iguesterin], the Inhibition type entry is recorded as “Competitive (0.8 ± 0.2)”, the V max amounted to 44.4 ± 6.2 intensity min^−1 and the “fold smaller IC50 value compared with that of reference compounds” value is recorded as 10 fold.
